Assay results published in ChEMBL document CHEMBL5360530, “Structure activity relationship (SAR) and anticancer activity of pyrrolidine derivatives: Recent developments and future prospects (A review)” (Eur J Med Chem, 2023).

Legend:
[1] = Cytotoxicity against human Chang liver cells assessed as cell growth inhibition measured after 24 hrs by DAPI and propidium iodide staining based assay; assay type: toxicity
M-HeLa = assay: Anticancer activity against human HelaM cells assessed as cell growth inhibition measured after 24 hrs by DAPI and propidium iodide staining based assay; assay type: functional
HepG2 [2] = assay: Anticancer activity against human HepG2 cells assessed as cell growth inhibition measured after 48 hrs by MTT assay; assay type: functional, cell-based; details: HepG2, 48 h
PC-3 = assay: Anticancer activity against human PC-3 cells assessed as cell growth inhibition measured after 48 hrs by MTT assay; assay type: functional, cell-based; details: PC-3, 48 h
HCT-116 = assay: Anticancer activity against human HCT-116 cells assessed as cell growth inhibition measured after 48 hrs by MTT assay; assay type: functional, cell-based; details: HCT-116, 48 h
FaDu = assay: Anticancer activity against human FaDu cells assessed as cell growth inhibition; assay type: functional, cell-based
MCF7 [3] = assay: Anticancer activity against human MCF7 cells assessed as cell growth inhibition measured after 48 hrs by MTT assay; assay type: functional, cell-based; details: MCF7, 48 h
HepG2 [4] = assay: Anticancer activity against human HepG2 cells assessed as cell growth inhibition at 100 uM by MTT assay relative to control; assay type: functional
MCF7 [5] = assay: Anticancer activity against human MCF7 cells assessed as cell growth inhibition at 100 uM by MTT assay relative to control; assay type: functional
A-431 = assay: Anticancer activity against human A-431 cells assessed as cell growth inhibition at 100 uM by MTT assay relative to control; assay type: functional

Structure (SMILES)	IC50 at 24 h [1] [µM]	IC50 (M-HeLa) [µM]	IC50 (FaDu) [µM]	also measured
Cc1cc(O)c(-c2ccc(Br)cc2)c(=O)o1	> 100	≥ 14.7	–	–
O=C(/C=C/c1ccco1)[C@H]1[C@H](c2ccco2)[C@H]2CSCN2[C@]12C(=O)Nc1ccccc12	–	–	–	IC50 (HepG2 [2]): ≥ 1500 nM; IC50 (PC-3): ≥ 800 nM; IC50 (HCT-116): 1570 nM
Oc1cc2c(cc1-c1ccccc1)OCO2	> 100	14.7	–	–
O=C1Nc2ccc(OC(F)(F)F)cc2[C@@]12N[C@H](Cc1c[nH]cn1)[C@@H]([N+](=O)[O-])[C@@H]2c1ccccc1	–	–	≥ 30	–
O=c1oc2ccccc2c(O)c1-c1ccccc1	> 100	≥ 14.7	–	–
COc1ccc([C@H]2[C@H]([N+](=O)[O-])[C@@H](Cc3c[nH]cn3)N[C@]23C(=O)Nc2ccccc23)cc1	–	–	≥ 30	–
COc1ccc([C@H]2[C@H]([N+](=O)[O-])[C@@H](Cc3c[nH]c4ccccc34)N[C@]23C(=O)Nc2ccc(OC(F)(F)F)cc23)cc1	–	–	≥ 30	–
CN(C)CCc1c(O)c2ccccc2oc1=O	> 100	≥ 14.7	–	–
Cc1cc(O)c(CCN(C)C)c(=O)o1	> 100	≥ 14.7	–	–
O=C1Nc2ccc(OC(F)(F)F)cc2[C@@]12N[C@H](Cc1c[nH]c3ccccc13)[C@@H]([N+](=O)[O-])[C@@H]2c1ccccc1Cl	–	–	≥ 30	–
O=C1Nc2ccccc2[C@@]12N[C@H](Cc1c[nH]c3ccccc13)[C@@H]([N+](=O)[O-])[C@@H]2c1cccc([N+](=O)[O-])c1	–	–	≥ 30	–
O=C(/C=C/c1ccc(F)cc1)[C@H]1[C@H](c2ccc(F)cc2)C2CSCN2C12C(=O)Nc1c(Br)cc(Br)cc12 (stereo not given in full)	–	–	–	IC50 (HepG2 [2]): ≥ 800 nM; IC50 (HCT-116): 1.57 µg/mL; IC50 (MCF7 [3]): 2.5 µg/mL
COc1ccc([C@H]2[C@H]([N+](=O)[O-])[C@@H](Cc3c[nH]cn3)N[C@]23C(=O)Nc2ccc(OC(F)(F)F)cc23)cc1	–	–	≥ 30	–
Cc1ccc(S(=O)(=O)N2CCCC2C(=O)Nc2ccc3c(C)cc(=O)oc3c2)cc1 (single isomer, unassigned)	–	–	–	IC50 (MCF7 [3]): 1070 nM
O=C(/C=C/c1ccc(F)cc1)[C@H]1[C@H](c2ccc(F)cc2)[C@H]2CSCN2[C@]12C(=O)Nc1ccc(Br)cc12	–	–	–	IC50 (HepG2 [2]): 800 nM; IC50 (PC-3): ≥ 800 nM
Cc1cc(O)c(-c2ccccc2)c(=O)o1	> 100	≥ 14.7	–	–
O=c1oc2ccccc2c(O)c1-c1ccc(F)cc1	> 100	≥ 14.7	–	–
O=C(/C=C/c1ccc(C(F)(F)F)cc1)[C@H]1[C@H](c2ccc(C(F)(F)F)cc2)[C@H]2CSCN2[C@]12C(=O)Nc1ccccc12	–	–	–	IC50 (HepG2 [2]): ≥ 1500 nM; IC50 (PC-3): 1000 nM

Structure (SMILES)	IC50 at 24 h [1] [µM]	IC50 (M-HeLa) [µM]	IC50 (FaDu) [µM]	also measured
O=C1Nc2ccc(OC(F)(F)F)cc2[C@@]12N[C@H](Cc1c[nH]c3ccccc13)[C@@H]([N+](=O)[O-])[C@@H]2c1ccccc1	–	–	≥ 30	–
CCCCCCCCCCCCCCCCOP(=O)([O-])OCC[N+](C)(C)C [MILTEFOSINE]	–	–	–	inhibition at 100 µM (HepG2 [4]): 31.3%; inhibition at 100 µM (MCF7 [5]): 69.4%; inhibition at 100 µM (A-431): 35.4%
Cc1ccc([C@H]2[C@H]([N+](=O)[O-])[C@@H](Cc3c[nH]cn3)N[C@]23C(=O)Nc2ccc(OC(F)(F)F)cc23)cc1	–	–	≥ 30	–
Cc1ccc(/C=C/C(=O)[C@H]2[C@H](c3ccc(C)cc3)C3CSCN3C23C(=O)Nc2c(Br)cc(Br)cc23)cc1 (stereo not given in full)	–	–	–	IC50 (HepG2 [2]): ≥ 800 nM; IC50 (HCT-116): 1.57 µg/mL; IC50 (MCF7 [3]): 2.5 µg/mL
CCCCCCc1ccc(Nc2c([N+](=O)[O-])c(Cl)cc3c2no[n+]3[O-])cc1O	> 100	≥ 14.7	–	–
Cc1cc(O)c(-c2ccc(F)cc2)c(=O)o1	> 100	≥ 14.7	–	–
O=C1Nc2ccccc2[C@@]12N[C@H](Cc1c[nH]cn1)[C@@H]([N+](=O)[O-])[C@@H]2c1ccc(Cl)cc1	–	–	≥ 30	–
Oc1cc2c(cc1-c1ccc(Br)cc1)OCO2	> 100	14.7	–	–
COc1ccc([C@H]2[C@H]([N+](=O)[O-])[C@@H](Cc3c[nH]c4ccccc34)N[C@]23C(=O)Nc2ccccc23)cc1	–	–	≥ 30	–
CCCCCCc1cc2c(cc1O)OCO2	> 100	14.7	–	–
CN(C)CCc1cc2c(cc1O)OCO2	> 100	14.7	–	–
Cc1cc(O)cc(=O)o1	> 100	≥ 14.7	–	–
O=C1Nc2ccccc2[C@@]12N[C@H](Cc1c[nH]cn1)[C@@H]([N+](=O)[O-])[C@@H]2c1cccc([N+](=O)[O-])c1	–	–	≥ 30	–
O=C(/C=C/c1ccc(Cl)cc1)[C@H]1[C@H](c2ccc(Cl)cc2)C2CSCN2C12C(=O)Nc1c(Br)cc(Br)cc12 (stereo not given in full)	–	–	–	IC50 (HCT-116): < 3000 nM
O=C1Nc2ccccc2[C@@]12N[C@H](Cc1c[nH]c3ccccc13)[C@@H]([N+](=O)[O-])[C@@H]2c1ccc(Cl)cc1	–	–	≥ 30	–
O=C(/C=C/c1ccc(Br)cc1)[C@H]1[C@H](c2ccc(Br)cc2)C2CSCN2C12C(=O)Nc1c(Br)cc(Br)cc12 (stereo not given in full)	–	–	–	IC50 (HCT-116): 2200 nM; IC50 (MCF7 [3]): 2500 nM
O=[N+]([O-])c1c(Cl)cc2c(no[n+]2[O-])c1Nc1ccc(-c2ccc(Br)cc2)c(O)c1	> 100	≥ 14.7	–	–
